Converted amounts (≈) assume the structure as drawn.

Series [1] has as its system Escherichia coli. The series is described as follows: Antibacterial activity against Escherichia coli ATCC25922 assessed as reduction in microbial growth after 24 hrs by broth dilution method. The series is classed as functional. As to conditions: ATCC 25922. Background: Dilution methods test growth across graded concentrations, often in twofold steps.
The test system of series [2] is Staphylococcus aureus. Briefly: Antibacterial activity against Staphylococcus aureus ATCC 6538 assessed as reduction in microbial growth after 24 hrs by broth dilution method. Type of series: functional.
The next series deals with Klebsiella pneumoniae. The series is described as follows: Antibacterial activity against Klebsiella pneumoniae ATCC 700603 assessed as reduction in microbial growth after 24 hrs by broth dilution method. Type of series: functional.
Series [3] is described as follows: Selectivity index, HC50 for hemolytic activity in rabbit RBC to MIC for antibacterial activity against methicillin-resistant Staphylococcus aureus ATCC 33591. The series is classed as toxicity. As to conditions: rabbit red blood cells (RBC), read-out: Selectivity Index.
Series [4] deals with Escherichia coli. The series is described as follows: Antibacterial activity against Escherichia coli ATCC25922 assessed as zone of inhibition incubated for 12 hrs by disc diffusion method. Type of series: functional, ATCC 25922.
Series [5] relates to Staphylococcus aureus. Briefly: Antibacterial activity against Staphylococcus aureus ATCC 6538 assessed as zone of inhibition incubated for 12 hrs by disc diffusion method. The series is classed as functional. For orientation: A growth-free zone around the sample is the usual read-out of agar diffusion tests.
A short description of series [6]: Hemolytic activity in rabbit RBC measured after 1 hrs by microplate reader assay. Type of series: toxicity, cell-based, Oryctolagus cuniculus, Erythrocyte. The following applies: rabbit red blood cells (RBC).
In series [7] the test system is Staphylococcus aureus. The series is described as follows: Antibacterial activity against methicillin-resistant Staphylococcus aureus ATCC 33591 assessed as MIC incubated for 12 hrs.

In the case of `CC(C)[C@H](N)C(=O)Nc1ccccc1`, the MIC with Escherichia coli [1], in the series with Staphylococcus aureus [2] and in the series with Klebsiella pneumoniae was > 1250 µg/mL each time.

Take `C#Cc1ccc(NC(=O)[C@@H](N)C(C)CC)cc1` (stereo partly drawn): in series [3], the selectivity ratio amounted to 20.8. For the same compound, the MIC in the series on Escherichia coli [1] came to 20 µg/mL; in the series on Staphylococcus aureus [2], 39 µg/mL; in the series with Klebsiella pneumoniae, 39 µg/mL; in the series with Staphylococcus aureus [7] it was 39 µg/mL (≈ 169 µM). Further, the “diameter of the inhibition zone (DIZ)” value in the series with Escherichia coli [4] stood at 12.3 mm; in the series with Staphylococcus aureus [5] it was 12 mm. The same compound returned an HC50 at 1 h in series [6] of 813 µg/mL.

Regarding `C#Cc1cccc(NC(=O)[C@@H](N)Cc2ccccc2)c1`, in series [3], the selectivity ratio is > 62.5. The MIC in the series with Escherichia coli [1] worked out at 39 µg/mL; in the series on Staphylococcus aureus [2], 20 µg/mL; in the series on Klebsiella pneumoniae, 39 µg/mL; in the series with Staphylococcus aureus [7] it was 20 µg/mL (≈ 75.7 µM). Also, the “diameter of the inhibition zone (DIZ)” value with Escherichia coli [4] is given as 10 mm; in the series on Staphylococcus aureus [5] it was 10.2 mm. Further, the HC50 at 1 h in series [6] is > 1250 µg/mL.

For the compound `CC(C)C(NC(=O)[C@H](N)Cc1ccccc1)C(=O)O` (stereo partly drawn), the MIC in the series on Escherichia coli [1], in the series with Staphylococcus aureus [2] and in the series on Klebsiella pneumoniae was > 1250 µg/mL each time. Also, the “diameter of the inhibition zone (DIZ)” value with Escherichia coli [4] and in the series with Staphylococcus aureus [5] was <6 mm each time.

For the compound `CC(C)[C@H](N)C(=O)Nc1ccc(I)cc1`, the selectivity ratio in series [3] worked out at 39.7. Further, the MIC in the series on Escherichia coli [1] came to 39 µg/mL; in the series on Staphylococcus aureus [2] it was 20 µg/mL; with Klebsiella pneumoniae, 39 µg/mL; in the series with Staphylococcus aureus [7], 20 µg/mL (≈ 62.9 µM). Also, in the series on Staphylococcus aureus [5], the “diameter of the inhibition zone (DIZ)” value is listed as 17.6 mm. This compound also had an HC50 at 1 h in series [6] of 794 µg/mL.

As to `C#Cc1ccc(NC(=O)[C@@H](N)Cc2c[nH]c3ccccc23)cc1`, the selectivity ratio in series [3] is > 16. Also, the minimal inhibitory concentration (MIC) in the series with Escherichia coli [1] is 156 µg/mL; in the series on Staphylococcus aureus [2], 78 µg/mL; with Klebsiella pneumoniae, 156 µg/mL; in the series on Staphylococcus aureus [7], 78 µg/mL (≈ 257 µM). Besides, the “diameter of the inhibition zone (DIZ)” value in the series with Escherichia coli [4] was 6.5 mm; with Staphylococcus aureus [5], 10 mm. Also, in series [6], the HC50 at 1 h was > 1250 µg/mL.

With `C#Cc1ccc(NC(=O)[C@@H](N)Cc2ccccc2)cc1`, in series [3], the selectivity ratio was > 125. The MIC in the series with Escherichia coli [1] was found to be 39 µg/mL; in the series with Staphylococcus aureus [2], 10 µg/mL; in the series on Klebsiella pneumoniae it was 39 µg/mL; in the series on Staphylococcus aureus [7] it was 10 µg/mL (≈ 37.8 µM). Besides, the “diameter of the inhibition zone (DIZ)” value worked out at 10 mm in the series with Escherichia coli [4] and 13 mm in the series on Staphylococcus aureus [5]. Further, the HC50 at 1 h in series [6] is > 1250 µg/mL.

`CC(C)[C@H](N)C(=O)Nc1ccc(F)cc1`: in series [3], the selectivity ratio is > 4. The MIC in the series with Escherichia coli [1], with Staphylococcus aureus [2] and in the series with Klebsiella pneumoniae was 312 µg/mL each time. For the same compound, the “diameter of the inhibition zone (DIZ)” value in the series with Escherichia coli [4] and with Staphylococcus aureus [5] was 6 mm each time. The HC50 at 1 h in series [6] is > 1250 µg/mL.

Consider `CC(C)[C@H](N)C(=O)Nc1ccc(Cl)cc1`, for which, in series [3], the selectivity ratio was > 16. Moreover, the MIC was found to be 156 µg/mL with Escherichia coli [1], 78 µg/mL in the series with Staphylococcus aureus [2], 156 µg/mL with Klebsiella pneumoniae and 78 µg/mL (≈ 344 µM) in the series with Staphylococcus aureus [7]. In addition, the “diameter of the inhibition zone (DIZ)” value with Escherichia coli [4] was 10 mm; with Staphylococcus aureus [5], 10.9 mm. The HC50 at 1 h in series [6] was > 1250 µg/mL.

On to `C#Cc1ccc(NC(=O)[C@@H](N)CC(C)C)cc1`, for which the selectivity ratio in series [3] amounted to 158. Also, the MIC amounted to 10 µg/mL in the series on Escherichia coli [1], 5 µg/mL with Staphylococcus aureus [2], 10 µg/mL in the series on Klebsiella pneumoniae and 10 µg/mL (≈ 43.4 µM) with Staphylococcus aureus [7]. The “diameter of the inhibition zone (DIZ)” value with Escherichia coli [4] is given as 14.5 mm; in the series with Staphylococcus aureus [5], 17.7 mm. This compound gave a 50% haemolytic concentration (HC50) at 1 h in series [6] of 789 µg/mL.

Consider `CCCCCCNC(=O)[C@@H](N)C(C)C`, for which the selectivity ratio in series [3] came out at 10. Besides, the MIC with Escherichia coli [1] is 20 µg/mL; in the series on Staphylococcus aureus [2], 39 µg/mL; with Klebsiella pneumoniae, 78 µg/mL; in the series on Staphylococcus aureus [7], 78 µg/mL (≈ 389 µM). The “diameter of the inhibition zone (DIZ)” value with Escherichia coli [4] amounted to 16.4 mm; in the series on Staphylococcus aureus [5], 12 mm. The same compound had an HC50 at 1 h in series [6] of 392 µg/mL.

`Cc1ccc(NC(=O)[C@@H](N)C(C)C)cc1`: the MIC in the series on Escherichia coli [1], in the series on Staphylococcus aureus [2] and in the series with Klebsiella pneumoniae was > 1250 µg/mL each time.

Take `CN[C@H](CC(C)C)C(=O)N[C@H]1C(=O)N[C@@H](CC(N)=O)C(=O)N[C@H]2C(=O)N[C@H]3C(=O)N[C@H](C(=O)N[C@H](C(=O)O)c4cc(O)cc(O)c4-c4cc3ccc4O)[C@H](O)c3ccc(c(Cl)c3)Oc3cc2cc(c3O[C@@H]2O[C@H](CO)[C@@H](O)[C@H](O)[C@H]2O[C@H]2C[C@](C)(N)[C@H](O)[C@H](C)O2)Oc2ccc(cc2Cl)[C@H]1O` [VANCOMYCIN]: the MIC with Escherichia coli [1] was 156 µg/mL; in the series with Staphylococcus aureus [2] it was < 0.63 µg/mL; with Klebsiella pneumoniae, 1250 µg/mL; in the series on Staphylococcus aureus [7] it was 1.25 µg/mL (≈ 0.863 µM).

As to `C#Cc1cccc(NC(=O)[C@@H](N)C(C)C)c1`, the selectivity ratio in series [3] was 83.6. In addition, the MIC in the series with Escherichia coli [1] amounted to 10 µg/mL; in the series with Staphylococcus aureus [2], 10 µg/mL; in the series with Klebsiella pneumoniae, 20 µg/mL; in the series on Staphylococcus aureus [7], 20 µg/mL (≈ 92.5 µM). The “diameter of the inhibition zone (DIZ)” value came out at 15.4 mm with Escherichia coli [4] and 15.7 mm in the series with Staphylococcus aureus [5]. This compound also gave an HC50 at 1 h in series [6] of 836 µg/mL.

Turning to `CC(C)[C@H](N)C(=O)Nc1ccc(Br)cc1`, in series [3], the selectivity ratio is > 32. Besides, the MIC with Escherichia coli [1] came to 39 µg/mL; in the series with Staphylococcus aureus [2], 39 µg/mL; with Klebsiella pneumoniae, 78 µg/mL; in the series with Staphylococcus aureus [7] it was 78 µg/mL (≈ 288 µM). Further, the “diameter of the inhibition zone (DIZ)” value with Escherichia coli [4] and with Staphylococcus aureus [5] was 11.8 mm throughout. The HC50 at 1 h in series [6] was > 1250 µg/mL.

Regarding `C#Cc1cccc(NC(=O)[C@H](N)C(C)C)c1`, the selectivity ratio in series [3] was > 125. Moreover, the MIC in the series with Escherichia coli [1] was 39 µg/mL; in the series on Staphylococcus aureus [2], 10 µg/mL; in the series on Klebsiella pneumoniae, 20 µg/mL; in the series on Staphylococcus aureus [7], 20 µg/mL (≈ 92.5 µM). Also, the “diameter of the inhibition zone (DIZ)” value in the series with Escherichia coli [4] was 10 mm; in the series with Staphylococcus aureus [5], 11.5 mm. For the same compound, the HC50 at 1 h in series [6] was > 1250 µg/mL.

For the compound `C[C@H]1COc2c(N3CCN(C)CC3)c(F)cc3c(=O)c(C(=O)O)cn1c23.C[C@H]1COc2c(N3CCN(C)CC3)c(F)cc3c(=O)c(C(=O)O)cn1c23.O` [LEVOFLOXACIN], the MIC is 2.5 µg/mL with Escherichia coli [1], 1.25 µg/mL in the series on Staphylococcus aureus [2], < 0.63 µg/mL with Klebsiella pneumoniae and 1.25 µg/mL with Staphylococcus aureus [7].

What is called MIC is the lowest concentration found to suppress growth. In general, HC50 refers to the concentration giving 50% haemolysis. High values mean less damage to red cells, low ones more damage to red cells.

Values taken from ChEMBL document CHEMBL5038623, “Synthesis and bioactivities of new N-terminal dipeptide mimetics with aromatic amide moiety: Broad-spectrum antibacterial activity and high antineoplastic activity” (Eur J Med Chem, 2022).
